Results as given in patent EP3545756A1, “REGENERATION OF PLANTS IN THE PRESENCE OF INHIBITORS OF THE HISTONE METHYLTRANSFERASE EZH2” (KWS SAAT SE & Co. KGaA, priority 2018, dated 2019).
Structures can show the parent of a compound that is named as a salt.

Key:
Sugar beet plants = assay: Plant growth after regeneration from shoots induced with temporary DZNep treatment; type: in vivo, Beta vulgaris; conditions: shoots from DZNep plates transferred into normal growth medium without DZNep, compared with shoots from control plates
Excerpt: Beside the increased capability for shoot formation the inventors observed that shoots harvested from the control plates and from the plates supplied with DZNep and subsequently transferred into the container with normal growth medium (without DZNep), developed to plant with different biomass and vitality. […] Thus, the DZNep treatment affects also positively the plant growth after regeneration.

sugar beet callus [1] = assay: Shoot formation after particle bombardment of sugar beet callus; type: cell-based, Beta vulgaris
Procedure: • 1. Friable calli were produced as described above in steps 1 and 2 of Example 1. • 2. An osmotic treatment was carried out by incubating the harvested calli in a medium containing MS salts, 30 g/l sucrose,1 mg/l GA3,1 mg/l Thidiazuron (TDZ),10 g/l agar, pH 6.0, 36 g/l mannitol and 36 g/l sorbitol for 2.5 h at room temperature in the dark. • 3. Preparation and DNA coating of the gold particles was done by standard procedures, as describe in the PDS-1000/He instruction manual. The plasmid pZFNnptll with the red fluorescent marker, tdT, (see Figure 2) was coprecipitated with gold particles. • 4. Calli were bombarded with a PDS-1000/He unit (Bio-Rad), using 30 ng gold particles coated with 500 ng DNA per shot. The rupture pressure was 450 psi and the target tissue was placed at 9 cm distance from the stopping screen. • 5. After bombardment, aliquots of calli tissue were incubated in medium containing MS salts, 30 g/l sucrose, 1 mg/l GA3 and 1 mg/l TDZ, with and without 0.4 mg/l DZNep, in light/dark (16h/8h), at 24 °C for 10 days on separate plates. As a control for standard regeneration, non-bombarded aliquots of calli were treated in the osmotic medium and directly transferred to above medium without DZNep. Shoot number was scored by using a standard binocular.

sugar beet callus [2] = assay: Shoot formation from sugar beet callus in DZNep-supplemented medium; type: cell-based, Beta vulgaris; conditions: 8 days
Excerpt: The applied method is based on the publication by Kischenko et al. (2005. Production of transgenetic sugarbeet (Beta vulgaris L.) plants resistant to phosphinothricin. Cell biology international, 29(1), 15-19.). This method relies on the induction of friable callus derived from cotyledons and hypocotyl explants. Method is genotype dependent.
• 1. Micropropagated shoots of the genotype 9BS0448 were used as starting material. Shoots were multiplied in MS salts supplemented with 30 g/l sucrose and 0.25 mg/l benzyladenine (BAP). • 2. To induce friable callus, leaf explants were isolated from micropropagated shoots and incubated in medium containing MS salts including 15 g/l sucrose and 2 mg/l BAP at 28°C in the dark for 7 weeks.
• 3. Friable calli of step 2 were harvested and placed in medium containing MS salts, 30 g/l sucrose, 1 mg/l GA3 and 1 mg/l TDZ, and transferred to separate dishes as control. Similar amount of friable calli were harvested and placed in the same medium supplemented with 0.4 mg/l DZNep. • 4. The dishes were incubated under the light/dark regime (16 h/8 h) at 24°C for 8 days. • 5. Developing shoots were counted under a stereomicroscope, in order to estimate the regeneration capacity.

SMILES: Nc1nccc2c1ncn2[C@@H]1C=C(CO)[C@@H](O)[C@H]1O [DZNep, 3-Deazaneplanocin A hydrochloride]
- plant biomass and vitality after regeneration (Sugar beet plants): significantly bigger and more vital
- increase of shoots per plate compared to the bombarded control (sugar beet callus [1]; bombarded calli with 0.4 mg/l DZNep versus bombarded control with standard medium): 207%
- increase of shoots per plate compared to the non-bombarded control (sugar beet callus [1]; bombarded calli with 0.4 mg/l DZNep versus non-bombarded control without DZNep): 108%
- mean value of shoots per plate (sugar beet callus [1]; bombarded calli, 0.4 mg/l DZNep in medium, 10 days, 24 °C, non-bombarded control 4, bombarded control 2.7): 8.3 shoots per plate
- mean value of shoots per 1 g callus tissue (sugar beet callus [2]; 0.4 mg/l DZNep in shoot induction medium, genotype 9BS0448, 24°C, light/dark 16 h/8 h, control 13.9): 27.1 shoots per 1 g callus tissue
- increase of shoots per 1 g callus tissue compared to control (sugar beet callus [2]; 0.4 mg/l DZNep versus control without DZNep): 95%
